Measured values as given in patent publication US12414994B2, “Compositions comprising lopinavir and treatment of conditions” (DOUGLAS PHARMACEUTICALS LIMITED, priority 2019, dated 2025).
Read-outs that look alike come from different tables or passages of the source.

Assays:
HSV2 strain HG52 = assay: HSV2 replication assay in N-Tert keratinocytes (anti-HSV immunostaining); format: cell-based; settings: for effect against HSV2 replication: FIG. 2B
Description: (§1) Cell Culture; Telomerase immortalised N-Tert human foreskin Keratinocyes were maintained in standard T-75 tissue culture flasks (Corning, USA) in 25 ml of Keratinocyte serum-free medium (KSFM) supplemented with L-glutamine, 0.2 ng/ml epidermal growth factors (EGF) and 25 μg/mL bovine pituitary extract (BPE) (Gibco, Invitrogen, UK). These were maintained at 37° C. in a humidified atmosphere of 5% CO2 and the medium was changed every 2 days as required. For routine sub-culture the medium was aspirated, cells washed with PBS (Gibco-Invitrogen, UK) and 2 ml of Cell Culture Grade Trypsin 0.05% solution with EDTA (Gibco-Invitrogen, UK) added to each flask which was incubated at 37° C./5% CO2 for 10 minutes. A 10 ml aliquot of KSFM plus 10% foetal bovine serum (FBS) (Gibco-Invitrogen, UK) was then added and the cells centrifuged at 6000 g for 6 minutes. The medium was aspirated and cells washed with 10 mls of PBS (Gibco Invitrogen, UK) followed by re-suspension in 10 mls of fresh KSFM and final a cell count carried out. HSV1 & 2 Replication Assays; T25 flasks (Corning, USA) were each seeded with 600,000 N-Tert cells in serum-free KSFM plus supplements and incubated at 37° C./5% CO2 until confluent (Approximately 72 hours). The medium was then aspirated and cells infected with either 25 μl aliquot of HSV2 strain HG52, 1 μl of HSV1 strain 17+ or a 5 μl aliquot of the acyclovir resistant HSV2 strain 132349 ACV-res (Public Health England, Porton Down, UK) in 0.5 ml of serum-free KSFM plus supplements for a period of 2 hours at 37° C./5% CO2. The volume of each HSV strain stock used was empirically determined as the amount required to produce pronounced cytopathic changes in infected control flasks over the time course of the experiment. A 9.5 ml aliquot of KSFM plus supplements was then added to each flask and cells infected with the HG52 or 17+ strains incubated overnight whereas cell infected with the 132349 ACV-res strain were incubated for 5 hours at 37° C./5% CO2. Stock solutions of each active pharmaceutical ingredient (API) were freshly prepared every week from dry powder (Douglas Pharna, NZ) dissolved volumetrically in DMSO at 100 mM and stored at −20° C. Appropriate final dilutions of these API stocks solutions were made in KSFM plus supplements such that the same volume of DMSO (2 μl) was added to each infected flask. Where mixed APIs were used, concentrations were calculated as w/w ratios. API treated HSV2 HG52 infected cells were then incubated for 48 hours, HSV1 17+ infected cells were incubated for 8 hours and HSV-2 132349 ACV-res infected cells were incubated for 12 hours prior to harvesting for immunostaining. A concentration of 5 μM Acyclovir (VWR International, UK) was also added as a comparator to flasks infected with HSV-2 132349 ACV-res in order to verify the acyclovir resistant nature of the strain. […] Harvesting & Immunostaining; Growth medium was decanted from each flask and placed into 15 ml universal tubes (Corning, USA) and the cells rinsed with 1 ml of 1×PBS which was pooled with the growth medium. A 1 ml aliquot of NB Cell Culture Grade Trypsin 0.05% solution with EDTA was added to each T-25 flask and cells incubated at 37° C./5% CO2 for 10 minutes. A 1 ml aliquot of FBS was added to the decanted growth medium plus PBS from the previous step and 2 ml of this was then added to each flask to inactivate the trypsin. The trypsinised cells were then pooled with the decanted growth medium and an aliquot taken for analysis of cell viability using Via-1 cassette NC3000 cell cytometer assays (CheoMetec A/S, Denmark). The remaining cells were centrifuged at 6000 g for 5 minutes, the medium aspirated and the cells re-suspended and washed with 10 ml of PBS followed by re-centrifugation. Finally the cells were re-suspended in 70% of ice-cold ethanol, stored overnight at 4° C. and a volume containing 60,000 cells was aliquoted into 1.5 ml Eppendorf tubes and centrifuged for 5 minutes at 5000 rpm. […]

HSV1 strain 17+ = assay: HSV1 replication assay in N-Tert keratinocytes (anti-HSV immunostaining); format: cell-based; settings: for effects on HSV1 replication: FIG. 4B; for effect on HSV1 replication: pre-treatment virus incubation reduced by 2 hours, FIG. 5B
Description: as §1, with “trypsin.” for “trypsin. The trypsinised cells were then pooled with the decanted growth medium and an aliquot taken for analysis of cell viability using Via-1 cassette NC3000 cell cytometer assays (CheoMetec A/S, Denmark). The remaining cells were centrifuged at 6000 g for 5 minutes, the medium aspirated and the cells re-suspended and washed with 10 ml of PBS followed by re-centrifugation. Finally the cells were re-suspended in 70% of ice-cold ethanol, stored overnight at 4° C. and a volume containing 60,000 cells was aliquoted into 1.5 ml Eppendorf tubes and centrifuged for 5 minutes at 5000 rpm.”

[1] = test system: uninfected N-Tert keratinocytes; assay: Cytotoxicity assay (Via-1 cassette viability); format: cell-based; settings: human, 48 h
Description: (§2) Cell Culture; Telomerase immortalised N-Tert human foreskin Keratinocyes were maintained in standard T-75 tissue culture flasks (Corning, USA) in 25 ml of Keratinocyte serum-free medium (KSFM) supplemented with L-glutamine, 0.2 ng/ml epidermal growth factors (EGF) and 25 μg/mL bovine pituitary extract (BPE) (Gibco, Invitrogen, UK). These were maintained at 37° C. in a humidified atmosphere of 5% CO2 and the medium was changed every 2 days as required. For routine sub-culture the medium was aspirated, cells washed with PBS (Gibco-Invitrogen, UK) and 2 ml of Cell Culture Grade Trypsin 0.05% solution with EDTA (Gibco-Invitrogen, UK) added to each flask which was incubated at 37° C./5% CO2 for 10 minutes. A 10 ml aliquot of KSFM plus 10% foetal bovine serum (FBS) (Gibco-Invitrogen, UK) was then added and the cells centrifuged at 6000 g for 6 minutes. The medium was aspirated and cells washed with 10 mls of PBS (Gibco Invitrogen, UK) followed by re-suspension in 10 mls of fresh KSFM and final a cell count carried out. HSV1 & 2 Replication Assays; T25 flasks (Corning, USA) were each seeded with 600,000 N-Tert cells in serum-free KSFM plus supplements and incubated at 37° C./5% CO2 until confluent (Approximately 72 hours). The medium was then aspirated and cells infected with either 25 μl aliquot of HSV2 strain HG52, 1 μl of HSV1 strain 17+ or a 5 μl aliquot of the acyclovir resistant HSV2 strain 132349 ACV-res (Public Health England, Porton Down, UK) in 0.5 ml of serum-free KSFM plus supplements for a period of 2 hours at 37° C./5% CO2. The volume of each HSV strain stock used was empirically determined as the amount required to produce pronounced cytopathic changes in infected control flasks over the time course of the experiment. A 9.5 ml aliquot of KSFM plus supplements was then added to each flask and cells infected with the HG52 or 17+ strains incubated overnight whereas cell infected with the 132349 ACV-res strain were incubated for 5 hours at 37° C./5% CO2. […] Where mixed APIs were used, concentrations were calculated as w/w ratios. […]

herpesvirus = settings: Gantt et al. (2011) Table 1; cited from earlier work
[2] = test system: acyclovir resistant HSV2 strain 132349 ACV-res; assay: Acyclovir resistant HSV2 replication assay in N-Tert keratinocytes; format: cell-based
Description: as §2

[3] = test system: labial or skin HSV lesions; settings: episodic topical application, cited from earlier work
HSV-2 132349 ACV-res = settings: Houston et al (2017) Table 2; cited from earlier work
HSV1 17+ strain = settings: Houston et al (2017) Table 2; cited from earlier work
[4] = cited from earlier work

**Q.** Which results are given for `Cc1c(O)cccc1C(=O)N[C@@H](CSc1ccccc1)[C@H](O)CN1C[C@H]2CCCC[C@H]2C[C@H]1C(=O)NC(C)(C)C` [nelfinavir]?
**A.** effect against HSV2 replication (HSV2 strain HG52; 2 μM): less effective against HSV2 replication than 10 μM nelfinavir; effect against HSV2 replication (HSV2 strain HG52; 5 μM): less effective against HSV2 replication than 10 μM nelfinavir; effect against HSV2 replication (HSV2 strain HG52; 10 μM): as effective as 20 μM 12:1 Lop/Rit; effects on HSV1 replication (HSV1 strain 17+; 2 μM): very modest effects; effect on HSV1 replication (HSV1 strain 17+; 2 μM): no discernible effect; effects on HSV1 replication (HSV1 strain 17+; 10 μM): very modest effects; effect on HSV1 replication (HSV1 strain 17+; 10 μM): no discernible effect; concentrations with significant toxic effects on eukaryotic cells [1]: above 2 μM; cell viability ([1]; 10 μM): < 60%; cell viability ([1]; 20 μM): about 40%; effect on herpesvirus replication (herpesvirus): inhibitory effect on viruses

**Q.** What does the source list for `Nc1nc2c(ncn2COCCO)c(=O)[nH]1` [Acyclovir, acyclovir]?
**A.** number of virus positive cells ([2]; Acyclovir, FIG. 6B): did not, as expected reduce the number of virus positive cells; improvement of healing times ([3]; 3-5% acyclovir cream): approximately 10%; concentration required for toxicity against this strain (HSV-2 132349 ACV-res): > 100 µM; concentration that proved very effective (HSV1 17+ strain): < 0.8 µM

**Q.** Which “number of virus positive cells” value ([2]; 10 μM, FIG. 6B (DMSO control 50%)) does the source give for `Cc1cccc(C)c1OCC(=O)N[C@@H](Cc1ccccc1)[C@@H](O)C[C@H](Cc1ccccc1)NC(=O)[C@H](C(C)C)N1CCCNC1=O` (relative stereo) [lopinavir, [1S-[1R*(R*), 3R*, 4R*]]-N-[4-[(2,6-dimethylphenoxy0acetyl]amino]-3-hydroxy-5-phenyl-1-(phenylmethyl)pentyl]tetrahydro-alpha-(1-methylethyl)-2-oxo-1(2H)-pyrimidineacetamide] here?
**A.** 10%

**Q.** And the “number of virus positive cells” value ([2]; 20 μM, FIG. 6B (DMSO control 50%))?
**A.** 5%

**Q.** What about the “effect against HSV2 replication compared with nelfinavir” value (HSV2 strain HG52; 20 μM) of the same molecule?
**A.** more effective against HSV2 replication than either 2 or 5 μM nelfinavir

**Q.** What about the “HSV2 positive cells (anti-HSV antibody immunostaining images)” value (HSV2 strain HG52; 20 μM, 48 hours, FIG. 1B) of the same molecule?
**A.** Very few HSV2 positive cells

**Q.** What about the “cytopathic effects of HSV2 infection (phase contrast morphology)” value (HSV2 strain HG52; 20 μM, 48 hours, N-Tert keratinocytes, FIG. 1A) of the same molecule?
**A.** virtually no cytopathic effects

**Q.** What about the “percentage of virus positive cells (quantitative analysis of immune staining)” value (HSV2 strain HG52; 20 μM, FIG. 1C) of the same molecule?
**A.** marked reduction

**Q.** What about the “effect on HSV1 replication” value (HSV1 strain 17+; 20 μM) of the same molecule?
**A.** by far the greatest activity

**Q.** And the solubility in water [4]?
**A.** virtually insoluble in water

**Q.** And the “effect on herpesvirus replication” value (herpesvirus)?
**A.** ineffective

**Q.** With `Nc1nc2c(ncn2CCC(CO)CO)c(=O)[nH]1` [penciclovir] as the molecule, how does the “improvement of healing times” value ([3]; 1% penciclovir cream) read?
**A.** approximately 10%

**Q.** Which “effect on herpesvirus replication” value (herpesvirus) does the source give for `CC(C)c1nc(CN(C)C(=O)N[C@H](C(=O)N[C@@H](Cc2ccccc2)C[C@H](O)[C@H](Cc2ccccc2)NC(=O)OCc2cncs2)C(C)C)cs1` (relative stereo) [ritonavir, 10-Hydroxy-2-methyl-5-(1-methylethyl)-1-[2-(1-methylethyl)-4-thiazolyl]-3,6-dioxo-8,11bis(phenylmethyl)-2,4,7,12-tetraazatridecan-13-oic acid, 5-thiazolylmethylester, [5S-(5R*,8R*,10R8,11R*)]] here?
**A.** ineffective
